Measurements from publication PMC3974779, “Pterostilbene-Isothiocyanate Conjugate Suppresses Growth of Prostate Cancer Cells Irrespective of Androgen Receptor Status” (PLoS ONE, 2014).

How the values were obtained:
[1] = biological target: T1, hAR in PC-3 cells (Homo sapiens, UniProt P10275); test: AR transactivation luciferase assay (pSG5-hAR + pMMTV-luc); type: cell-based; conditions: 10 nM DHT
T1 construct: full length hAR in pSG5 expression vector; expressed in transfected cells; host or cells: PC-3 (AR-negative)
T1 sequence (P10275 1-920): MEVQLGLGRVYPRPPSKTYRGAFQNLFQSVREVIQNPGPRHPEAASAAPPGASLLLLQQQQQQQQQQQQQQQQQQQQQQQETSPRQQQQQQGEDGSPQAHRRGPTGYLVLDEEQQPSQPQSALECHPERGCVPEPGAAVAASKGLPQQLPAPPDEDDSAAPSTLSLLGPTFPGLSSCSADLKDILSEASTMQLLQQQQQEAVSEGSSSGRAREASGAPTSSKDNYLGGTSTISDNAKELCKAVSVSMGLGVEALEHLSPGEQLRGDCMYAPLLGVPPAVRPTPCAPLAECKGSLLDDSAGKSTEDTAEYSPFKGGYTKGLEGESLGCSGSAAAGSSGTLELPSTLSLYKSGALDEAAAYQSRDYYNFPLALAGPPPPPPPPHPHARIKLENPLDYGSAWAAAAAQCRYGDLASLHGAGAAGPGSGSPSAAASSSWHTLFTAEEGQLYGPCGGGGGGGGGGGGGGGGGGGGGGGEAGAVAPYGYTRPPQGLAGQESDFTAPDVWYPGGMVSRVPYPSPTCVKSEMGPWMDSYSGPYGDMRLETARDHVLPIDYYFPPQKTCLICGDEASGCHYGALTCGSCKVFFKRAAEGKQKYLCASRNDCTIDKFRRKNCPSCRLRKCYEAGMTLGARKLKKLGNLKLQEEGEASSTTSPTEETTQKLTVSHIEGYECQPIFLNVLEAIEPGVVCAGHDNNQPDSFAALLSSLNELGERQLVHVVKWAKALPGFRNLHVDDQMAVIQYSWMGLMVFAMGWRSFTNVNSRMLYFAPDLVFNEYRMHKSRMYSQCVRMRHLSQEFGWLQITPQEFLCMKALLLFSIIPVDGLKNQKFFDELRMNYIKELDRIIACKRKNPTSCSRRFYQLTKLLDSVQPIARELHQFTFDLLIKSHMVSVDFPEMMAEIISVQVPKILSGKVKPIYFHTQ
Procedure: The LNCaP cells were grown and transiently transfected with pMMTV-neomycin-luciferase plasmid (300 ng/10^5 cells) in RPMI media supplemented with 10% FBS using polyfect transfection reagent (Qiagen, CA, USA) according to manufacturer’s instructions. Then, 24 h after transfection, the cell culture media were changed with media containing 5% charcoal-stripped FBS to reduce the contaminating steroids from the serum and incubated for an additional day before initiating the treatments. In case of PC-3 cells, they were similarly transfected, but in addition to pMMTV-neomycin-luciferase construct, they were also transfected with pSG5-hAR-puro plasmid (full length hAR in pSG5 expression vector) in the ratio of 5∶1 as indicated above. For experiments involving co-regulators, 50 ng of co-activator plasmids (25 ng each of GRIP-1 and SRC-1) along with pMMTV-neo-luc (250 ng) were transfected to LNCaP cells. To evaluate the transfection efficiency, 500 ng/105 cells of the SV40 promoter-Renilla luciferase (pRL-SV40) vector (Promega Madison, USA) were co-transfected as internal control. […] Each experimental point was performed in triplicate and varied by less than 10%. The values of luciferase for each lysates were normalized to the Renilla luciferase activity.

[2] = system: p53 protein in LNCaP cells; test: Immunoblot of p53 with p53 inhibitor; type: cell-based, human; conditions: 20 μM PFT-α, 20 and 40 μM conjugate, 24 h
Procedure: The whole-cell lysates were prepared as described previously in immunoprecipitation (IP) buffer containing 50 mM Tris-HCl (pH 8.0), 150 mM NaCl, 5 mM EDTA, and 1% Triton X-100. Protein aliquots of 500 μg were then incubated overnight at 4°C using 2 μg of antibody directed against AR. The Protein A-Cl Agarose beads were then added and further incubated for 6 h at 4°C. The immunoprecipitates were washed four times with the IP buffer and the immunocomplexes were recovered by boiling in SDS sample buffer. Finally the western blot was carried out using anti-AR, anti-SRC-1 and anti-GRIP-1 antibodies (Santa Cruz, CA, USA). For western blot analysis, the cell lysates were prepared after harvesting them in lysis buffer. About 40 μg of total protein was electrophoresed by 12% SDS-PAGE, and the western blotting was carried out using standard protocol. In brief, the analyzed proteins were transferred to nylon membranes. […]
Since there was no significant difference in the number of apoptotic cells between conjugate treated LNCaP (wild type p53) and PC-3 (p53 null) cells (p<0.05), it was intriguing to check if p53 has any role in conjugate induced apoptosis of PCa cells. […] Next we determined the effect of p53-inhibition on conjugate induced cell death by using MTT assay.

reduction of DHT-mediated luciferase activity ([1]; PC-3, 5 μM): 19%
reduction of DHT-mediated luciferase activity ([1]; PC-3, 10 μM): 31%
reduction of DHT-mediated luciferase activity ([1]; PC-3, 20 μM): 63%
reduction of DHT-mediated luciferase activity ([1]; PC-3, 30 μM): 70%
reduction of DHT-mediated luciferase activity ([1]; PC-3, 40 μM): 80%
SMILES: COc1cc(/C=C/c2ccc(O)c(/C=N/NC(N)=S)c2)cc(OC)c1 [conjugate, Pterostilbene-isothiocyanate conjugate]
expression of p53 protein [2]: dose dependent increase
